Reference: publication PMC4804213, “Human EAG channels are directly modulated by PIP2 as revealed by electrophysiological and optical interference investigations” (Scientific Reports, 2016)
Where two headings read alike, the source gives them in different places.

Experiments:
hEAG1 (Kv10.1, KCNH1) [1] = target: T1, hEAG1 (Kv10.1, KCNH1) (Homo sapiens, UniProt O95259); experiment: patch clamp, peak current inhibition at […] mV, Hill fit; assay type: cell-based
T1 construct: full length; untagged in pcDNA3.1 transiently in CHO cells (patch clamp); tetramer
T1 sequence (O95259 1-962 isoform O95259-2): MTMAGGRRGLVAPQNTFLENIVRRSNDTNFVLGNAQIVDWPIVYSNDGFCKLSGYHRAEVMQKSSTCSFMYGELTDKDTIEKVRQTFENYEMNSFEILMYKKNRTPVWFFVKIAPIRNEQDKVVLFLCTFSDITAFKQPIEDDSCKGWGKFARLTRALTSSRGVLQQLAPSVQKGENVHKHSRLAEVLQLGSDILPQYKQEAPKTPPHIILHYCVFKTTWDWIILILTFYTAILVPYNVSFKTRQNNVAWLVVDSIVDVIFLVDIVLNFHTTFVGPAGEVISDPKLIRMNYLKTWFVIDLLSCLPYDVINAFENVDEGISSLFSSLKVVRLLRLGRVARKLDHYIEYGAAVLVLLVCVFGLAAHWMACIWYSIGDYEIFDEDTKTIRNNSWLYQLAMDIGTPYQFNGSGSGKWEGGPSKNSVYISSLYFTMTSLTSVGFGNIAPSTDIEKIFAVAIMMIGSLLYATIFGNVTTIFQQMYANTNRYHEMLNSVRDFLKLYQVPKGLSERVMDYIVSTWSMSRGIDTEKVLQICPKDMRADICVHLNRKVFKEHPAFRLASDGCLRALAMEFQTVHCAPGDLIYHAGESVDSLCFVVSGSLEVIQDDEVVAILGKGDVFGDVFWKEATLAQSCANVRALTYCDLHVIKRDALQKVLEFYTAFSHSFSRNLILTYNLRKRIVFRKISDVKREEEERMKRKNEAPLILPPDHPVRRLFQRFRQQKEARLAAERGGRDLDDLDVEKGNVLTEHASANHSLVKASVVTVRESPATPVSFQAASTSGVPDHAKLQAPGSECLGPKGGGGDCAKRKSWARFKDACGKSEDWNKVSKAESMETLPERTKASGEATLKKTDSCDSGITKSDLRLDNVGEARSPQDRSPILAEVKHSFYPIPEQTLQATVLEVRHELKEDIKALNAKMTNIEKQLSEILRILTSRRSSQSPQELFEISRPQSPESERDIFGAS

hEAG1 (Kv10.1, KCNH1) [2] = target: T1, hEAG1 (Kv10.1, KCNH1); experiment: bio-layer interferometry, biotinylated FLAG-tagged channel on streptavidin sensor, Hill fit; assay type: binding; conditions: 200-s cumulative application epochs; PBS, 0.02% Tween-20, 0.1% BSA, pH 7.4; room temperature; brain-derived lipid of mixed acyl chains

| IC50 (hEAG1 (Kv10.1, KCNH1) [1]) | Kd (hEAG1 (Kv10.1, KCNH1) [2]) | IC50 (hEAG1 (Kv10.1, KCNH1) [1]; 200-s application to the intracellular side, peak current at 40 mV, room temperature, brain-derived lipid of mixed acyl chains) | Compound |
| --- | --- | --- | --- |
| 18600 ± 600 nM | – | – | CCCCCCCC(=O)OC[C@H](COP(=O)(O)O[C@@H]1[C@H](O)[C@H](O)[C@@H](OP(=O)(O)O)[C@H](OP(=O)(O)O)[C@H]1O)OC(=O)CCCCCCC [diC8-PIP2] |
| – | 350 ± 40 nM | 350 ± 10 nM | PIP2 |
